Measured values reported in the supplement of paper PMC10307832.

Tests used:
Experiment in all cases: relative viability (nuclei count vs DMSO), 5 days (fraction); higher = more cells survive
Everolimus + Navitoclax = compound: CO[C@H]1C[C@@H]2CC[C@@H](C)[C@@](O)(O2)C(=O)C(=O)N2CCCC[C@H]2C(=O)O[C@H]([C@H](C)C[C@@H]2CC[C@@H](OCCO)[C@H](OC)C2)CC(=O)[C@H](C)/C=C(\C)[C@@H](O)[C@@H](OC)C(=O)[C@H](C)C[C@H](C)/C=C/C=C/C=C/1C [Everolimus] + CC1(C)CCC(c2ccc(Cl)cc2)=C(CN2CCN(c3ccc(C(=O)NS(=O)(=O)c4ccc(N[C@H](CCN5CCOCC5)CSc5ccccc5)c(S(=O)(=O)C(F)(F)F)c4)cc3)CC2)C1 [Navitoclax] (partner 0.5 µM)
How it was run: (§1)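 A single step with final 0.05% Triton X-100, 1% formaldehyde and 1 ug/ml Hoechst fixed the cells and stained nuclei 5 days after treatment. Lung cancer cell lines in 1536-well plates had been treated by pin tool the day after seeding with one drug alone or a fixed anchor-drug dose plus five library-drug doses (not always all listed) in √10 steps, and nuclei were counted on 4× images. Relative viability is the ratio of nuclei in treated wells to nuclei in vehicle wells, taken as the median of duplicate plates.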

Everolimus + Linsitinib = compound: CO[C@H]1C[C@@H]2CC[C@@H](C)[C@@](O)(O2)C(=O)C(=O)N2CCCC[C@H]2C(=O)O[C@H]([C@H](C)C[C@@H]2CC[C@@H](OCCO)[C@H](OC)C2)CC(=O)[C@H](C)/C=C(\C)[C@@H](O)[C@@H](OC)C(=O)[C@H](C)C[C@H](C)/C=C/C=C/C=C/1C [Everolimus] + C[C@]1(O)C[C@@H](c2nc(-c3ccc4ccc(-c5ccccc5)nc4c3)c3c(N)nccn32)C1 [Linsitinib] (partner 1 µM)
How it was run: as §1

Everolimus + Alpelisib = compound: CO[C@H]1C[C@@H]2CC[C@@H](C)[C@@](O)(O2)C(=O)C(=O)N2CCCC[C@H]2C(=O)O[C@H]([C@H](C)C[C@@H]2CC[C@@H](OCCO)[C@H](OC)C2)CC(=O)[C@H](C)/C=C(\C)[C@@H](O)[C@@H](OC)C(=O)[C@H](C)C[C@H](C)/C=C/C=C/C=C/1C [Everolimus] + Cc1nc(NC(=O)N2CCC[C@H]2C(N)=O)sc1-c1ccnc(C(C)(C)C(F)(F)F)c1 [Alpelisib] (partner 2 µM)
How it was run: as §1

Everolimus + Vorinostat = compound: CO[C@H]1C[C@@H]2CC[C@@H](C)[C@@](O)(O2)C(=O)C(=O)N2CCCC[C@H]2C(=O)O[C@H]([C@H](C)C[C@@H]2CC[C@@H](OCCO)[C@H](OC)C2)CC(=O)[C@H](C)/C=C(\C)[C@@H](O)[C@@H](OC)C(=O)[C@H](C)C[C@H](C)/C=C/C=C/C=C/1C [Everolimus] + O=C(CCCCCCC(=O)Nc1ccccc1)NO [Vorinostat] (partner 1 µM)
How it was run: as §1

| Cell Line | relative viability (Everolimus + Navitoclax; first compound 0.01 µM) | relative viability (Everolimus + Navitoclax; first compound 0.03162 µM) | relative viability (Everolimus + Navitoclax; first compound 0.1 µM) | relative viability (Everolimus + Navitoclax; first compound 0.3162 µM) | relative viability (Everolimus + Navitoclax; first compound 1 µM) | relative viability (Everolimus + Linsitinib; first compound 0.01 µM) | relative viability (Everolimus + Linsitinib; first compound 0.03162 µM) | relative viability (Everolimus + Linsitinib; first compound 0.1 µM) | relative viability (Everolimus + Linsitinib; first compound 0.3162 µM) | relative viability (Everolimus + Linsitinib; first compound 1 µM) | relative viability (Everolimus + Alpelisib; first compound 0.01 µM) | relative viability (Everolimus + Alpelisib; first compound 0.03162 µM) | relative viability (Everolimus + Alpelisib; first compound 0.1 µM) | relative viability (Everolimus + Alpelisib; first compound 0.3162 µM) | relative viability (Everolimus + Alpelisib; first compound 1 µM) | relative viability (Everolimus + Vorinostat; first compound 0.01 µM) | relative viability (Everolimus + Vorinostat; first compound 0.03162 µM) | relative viability (Everolimus + Vorinostat; first compound 0.1 µM) | relative viability (Everolimus + Vorinostat; first compound 0.3162 µM) | relative viability (Everolimus + Vorinostat; first compound 1 µM) |
| --- | --- | --- | --- | --- | --- | --- | --- | --- | --- | --- | --- | --- | --- | --- | --- | --- | --- | --- | --- | --- |
| HCC-366 | 0.859 | 0.823 | 0.871 | 0.91 | 0.511 | 0.338 | 0.372 | 0.274 | 0.291 | 0.343 | 0.334 | 0.231 | 0.251 | 0.25 | 0.267 | 0.221 | 0.16 | 0.181 | 0.214 | 0.165 |
| HOP-62 | 0.997 | 0.875 | 0.862 | 0.786 | 0.948 | 0.669 | 0.603 | 0.477 | 0.607 | 0.449 | 0.683 | 0.551 | 0.517 | 0.518 | 0.429 | 0.475 | 0.345 | 0.388 | 0.389 | 0.361 |
| NCI-H1944 | 0.697 | 0.668 | 0.555 | 0.628 | 0.571 | 0.84 | 0.824 | 0.684 | 0.754 | 0.715 | 0.592 | 0.565 | 0.593 | 0.564 | 0.562 | 0.373 | 0.376 | 0.315 | 0.44 | 0.336 |
| SW 1573 | 0.577 | 0.466 | 0.464 | 0.533 | 0.395 | 0.615 | 0.454 | 0.506 | 0.401 | 0.386 | 0.449 | 0.374 | 0.441 | 0.334 | 0.346 | 0.373 | 0.452 | 0.465 | 0.458 | 0.478 |
| LU99A | 0.409 | 0.503 | 0.406 | 0.412 | 0.421 | 0.342 | 0.345 | 0.295 | 0.283 | 0.334 | 0.284 | 0.278 | 0.294 | 0.259 | 0.315 | 0.367 | 0.371 | 0.325 | 0.311 | 0.471 |
| NCI-H647 | 0.782 | 0.659 | 0.609 | 0.646 | 0.748 | 0.629 | 0.76 | 0.58 | 0.647 | 0.653 | 0.626 | 0.534 | 0.449 | 0.429 | 0.757 | 0.309 | 0.165 | 0.132 | 0.189 | 0.24 |
| A-427 | 0.622 | 0.404 | 0.409 | 0.388 | 0.461 | 0.854 | 0.772 | 0.823 | 0.675 | 0.834 | 0.795 | 0.709 | 0.754 | 0.675 | 0.787 | 0.781 | 0.817 | 0.751 | 0.829 | 0.843 |
